From ChEMBL document CHEMBL1201862, “PubChem BioAssay data set” (2004)
Active and inactive are the calls of the source.

Assays:
[1] = target: Photoreceptor-specific nuclear receptor (Homo sapiens, UniProt Q9Y5X4); format: functional, cell-based;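 further: CHO-S cells with Gal4-NCOR and VP16-NR2E3 two-hybrid luciferase reporter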
[2] = tested on: INS1; test: beta cell apoptosis inhibitors, cytokine rescue, dose response, luminescence, retest (AID 449756); format: functional, cell-based; settings: Rattus norvegicus;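 further: cell death triggered by IL-1 beta plus TNF-alpha plus IFN-gamma mixture; protective hits raise ATP signal compared with cytokine alone wells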
[3] = target: Protein Wnt-3a (Mus musculus, UniProt P27467); test: Wnt3a-driven reporter signaling inhibition, dose response, selectivity assay for Gli-SUFU antagonist project, Wnt-LIGHT cells, luminescence (AID 651570); format: functional; settings: read-out: IC50_Mean;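 further: Wnt-LIGHT reporter cells stimulated with conditioned medium from Wnt3a-producing cells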
[4] = NIH-3T3 fibroblast cytotoxicity, dose response, cytotoxicity control, cell-based, fluorescence, Alamar Blue, secondary assay (AID 2327); format: functional;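 further: NIH-3T3 mouse fibroblasts cultured with fluconazole at 8 µg/mL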
[5] = target: T1, Microphthalmia-associated transcription factor (Homo sapiens, UniProt O75030); test: TRPM1 promoter luciferase signal decrease, dose response, MITF inhibitor project, cell-based, SK-MEL-5, cherry-picked, set 3 (AID 493073); format: functional
T1 sequence (O75030 whole entry): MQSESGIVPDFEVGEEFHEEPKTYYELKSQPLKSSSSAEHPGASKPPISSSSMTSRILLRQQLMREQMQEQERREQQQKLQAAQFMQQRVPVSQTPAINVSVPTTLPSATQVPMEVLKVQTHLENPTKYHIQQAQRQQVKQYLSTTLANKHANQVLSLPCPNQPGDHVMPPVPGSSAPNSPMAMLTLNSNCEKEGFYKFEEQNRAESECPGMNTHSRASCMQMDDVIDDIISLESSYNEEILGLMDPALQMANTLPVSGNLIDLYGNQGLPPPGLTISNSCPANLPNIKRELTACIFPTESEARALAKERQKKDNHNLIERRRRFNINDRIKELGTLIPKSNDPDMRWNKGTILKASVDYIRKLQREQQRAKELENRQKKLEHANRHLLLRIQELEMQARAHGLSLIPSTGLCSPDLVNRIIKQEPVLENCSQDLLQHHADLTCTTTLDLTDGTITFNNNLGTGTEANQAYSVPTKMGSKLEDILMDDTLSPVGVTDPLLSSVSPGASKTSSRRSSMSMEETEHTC

[6] = target: T2, DNA repair protein RAD52 homolog (Homo sapiens, UniProt P43351); format: functional, biochemical
T2 sequence (P43351 whole entry): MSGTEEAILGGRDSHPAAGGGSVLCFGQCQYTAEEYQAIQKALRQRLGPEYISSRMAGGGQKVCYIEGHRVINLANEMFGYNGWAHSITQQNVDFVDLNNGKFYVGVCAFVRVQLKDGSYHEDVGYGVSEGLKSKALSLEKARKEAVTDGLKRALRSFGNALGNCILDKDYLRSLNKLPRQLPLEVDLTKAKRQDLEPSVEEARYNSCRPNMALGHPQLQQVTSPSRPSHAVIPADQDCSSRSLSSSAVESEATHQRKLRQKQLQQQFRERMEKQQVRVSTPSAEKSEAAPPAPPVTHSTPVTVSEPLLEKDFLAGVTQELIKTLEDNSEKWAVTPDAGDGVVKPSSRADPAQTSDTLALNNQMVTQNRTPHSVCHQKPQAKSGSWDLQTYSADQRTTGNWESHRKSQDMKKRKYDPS

[7] = C. albicans growth with fluconazole, confirmation, fluorescence, retest (AID 2467); format: functional, cell-based
[8] = target: T3, Short transient receptor potential channel 4 (Mus musculus, UniProt Q9QUQ5); test: mouse TRPC4 channel inhibitors, dose response, cell-based, HEK293 TRPC4/mu-opioid, Fluo-4 calcium (AID 434942); format: functional;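 further: potency of inhibitors blocking the TRPC4 calcium response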
T3 sequence (Q9QUQ5 whole entry): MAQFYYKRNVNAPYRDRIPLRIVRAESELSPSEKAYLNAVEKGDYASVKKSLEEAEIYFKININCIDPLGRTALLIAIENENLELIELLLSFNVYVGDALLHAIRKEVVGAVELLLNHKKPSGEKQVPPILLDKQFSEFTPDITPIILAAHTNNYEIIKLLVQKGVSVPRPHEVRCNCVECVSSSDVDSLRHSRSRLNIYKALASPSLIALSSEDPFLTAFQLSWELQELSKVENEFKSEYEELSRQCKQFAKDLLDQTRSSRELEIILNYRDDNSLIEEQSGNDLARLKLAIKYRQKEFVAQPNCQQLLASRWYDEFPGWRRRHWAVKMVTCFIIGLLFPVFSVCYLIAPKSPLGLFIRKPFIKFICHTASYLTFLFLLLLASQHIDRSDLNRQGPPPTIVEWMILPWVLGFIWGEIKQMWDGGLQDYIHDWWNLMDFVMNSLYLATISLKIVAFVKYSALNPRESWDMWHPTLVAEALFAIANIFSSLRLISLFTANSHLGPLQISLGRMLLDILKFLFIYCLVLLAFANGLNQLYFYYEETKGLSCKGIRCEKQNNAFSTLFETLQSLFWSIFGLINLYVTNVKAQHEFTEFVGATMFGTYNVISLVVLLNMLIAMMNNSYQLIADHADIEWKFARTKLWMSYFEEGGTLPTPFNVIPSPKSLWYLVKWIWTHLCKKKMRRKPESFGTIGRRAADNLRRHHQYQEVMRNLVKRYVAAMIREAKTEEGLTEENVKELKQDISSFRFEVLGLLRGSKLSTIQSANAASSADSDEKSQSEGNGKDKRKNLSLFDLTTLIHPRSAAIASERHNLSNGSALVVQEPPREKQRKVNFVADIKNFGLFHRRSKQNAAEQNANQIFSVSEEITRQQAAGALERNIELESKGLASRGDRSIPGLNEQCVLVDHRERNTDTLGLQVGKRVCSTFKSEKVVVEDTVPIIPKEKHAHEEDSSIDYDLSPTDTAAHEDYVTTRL

[9] = target: T4, Corticotropin-releasing factor receptor 2/Corticotropin-releasing factor-binding protein (Homo sapiens, UniProt P24387+Q13324); test: activators of CRF receptor 2 with binding protein – uHTS hits, confirmation (AID 602473); format: functional; settings: read-out: EC50_Mean
T4 sequence (Q13324 whole entry): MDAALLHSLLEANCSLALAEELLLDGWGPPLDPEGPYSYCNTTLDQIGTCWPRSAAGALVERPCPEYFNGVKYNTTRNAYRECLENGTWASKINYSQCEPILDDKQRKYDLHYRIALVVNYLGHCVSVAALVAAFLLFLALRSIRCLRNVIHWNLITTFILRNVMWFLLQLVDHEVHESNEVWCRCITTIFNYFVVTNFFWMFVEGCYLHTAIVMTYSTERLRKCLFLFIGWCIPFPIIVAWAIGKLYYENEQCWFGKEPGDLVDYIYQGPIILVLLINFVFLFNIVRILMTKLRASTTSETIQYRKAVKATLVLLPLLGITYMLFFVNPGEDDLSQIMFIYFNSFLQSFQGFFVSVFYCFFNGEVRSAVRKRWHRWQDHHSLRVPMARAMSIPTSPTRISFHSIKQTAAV
T4 sequence (P24387 whole entry): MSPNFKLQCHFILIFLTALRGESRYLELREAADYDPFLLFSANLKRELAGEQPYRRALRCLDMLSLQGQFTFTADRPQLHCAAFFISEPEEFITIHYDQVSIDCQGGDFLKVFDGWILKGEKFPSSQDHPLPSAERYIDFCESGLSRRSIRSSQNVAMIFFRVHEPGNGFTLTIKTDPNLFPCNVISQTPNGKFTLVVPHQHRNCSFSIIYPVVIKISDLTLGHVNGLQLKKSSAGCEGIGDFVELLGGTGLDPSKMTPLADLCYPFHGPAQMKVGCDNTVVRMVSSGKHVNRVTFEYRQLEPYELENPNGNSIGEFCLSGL

[10] = CRF-BP/CRF-R2 complex antagonists, dose response, cell-based, uHTS hits, 384-well (AID 651639); format: functional, Homo sapiens; settings: read-out: IC50_Mean
[11] = target: T4, Corticotropin-releasing factor receptor 2/Corticotropin-releasing factor-binding protein; test: Dose Response confirmation of uHTS hits for small molecule antagonists of the CRF-binding protein and CRF-R2 receptor complex.; format: functional; settings: read-out: IC50_Mean
[12] = StAR promoter reporter inhibition counter-screen, dose response, counter-screen for LRH-1 inverse agonist project, cell-based, luminescence, luciferase reporter (AID 651969); format: functional

Sequence of Photoreceptor-specific nuclear receptor (Q9Y5X4 whole entry, the tested form may be a part): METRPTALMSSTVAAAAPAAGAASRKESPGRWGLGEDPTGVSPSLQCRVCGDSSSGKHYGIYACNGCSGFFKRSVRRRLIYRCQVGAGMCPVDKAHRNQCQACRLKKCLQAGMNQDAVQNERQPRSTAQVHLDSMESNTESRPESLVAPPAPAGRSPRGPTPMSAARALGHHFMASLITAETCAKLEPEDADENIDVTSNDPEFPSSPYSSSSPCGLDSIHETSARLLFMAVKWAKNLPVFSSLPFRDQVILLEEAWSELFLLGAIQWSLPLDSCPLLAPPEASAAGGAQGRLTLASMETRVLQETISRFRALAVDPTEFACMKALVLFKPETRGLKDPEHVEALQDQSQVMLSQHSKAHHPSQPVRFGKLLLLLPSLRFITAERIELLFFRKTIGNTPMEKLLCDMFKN
Sequence of Protein Wnt-3a (P27467 whole entry): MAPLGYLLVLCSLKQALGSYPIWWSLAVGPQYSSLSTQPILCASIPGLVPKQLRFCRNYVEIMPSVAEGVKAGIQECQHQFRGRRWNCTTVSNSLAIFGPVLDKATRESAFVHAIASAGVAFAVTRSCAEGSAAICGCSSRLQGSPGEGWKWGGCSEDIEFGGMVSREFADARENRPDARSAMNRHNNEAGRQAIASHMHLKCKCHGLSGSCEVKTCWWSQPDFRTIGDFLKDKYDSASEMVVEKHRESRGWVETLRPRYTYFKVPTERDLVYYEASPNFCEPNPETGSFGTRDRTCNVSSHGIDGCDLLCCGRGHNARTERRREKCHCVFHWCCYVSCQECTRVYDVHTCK

SMILES | IC50 [1] | AC50 [2] | EC50 [9] | IC50 [10] | IC50 [11] | other results
CCCCCCCCn1c(=O)c(C(=O)OC)c(N)c2ccccc21 | 6.4 µM (active) | 5.55 µM (active) | – | – | – | –
C(#Cc1ccccc1)C[N+]1(CC#Cc2cccc3ccccc23)CCCC1 | – | 6.44 µM (active) | – | – | – | IC50 [3]: 5.07 µM (active); EC50 [4]: > 150 µM (inconclusive); AC50 [5]: 6.21 µM (active); AC50 [6]: 15.2 µM (active); EC50 [7]: > 38 µM (not active)
Cc1ccc(C(C)(C)C)cc1S(=O)(=O)Nc1nc2ccccc2nc1Cl | – | – | 31.4 µM (active) | 12.9 µM (active) | 6.04 µM (active) | EC50 [8]: 6.68 µM (active)
CCOc1ccc(/N=c2\scc(-c3ccc(OC)cc3)n2CCO)cc1 | – | – | > 53 µM (inactive) | > 20 µM (inactive) | 3.31 µM (active) | –
Cc1cccc(NC(=O)CSc2nc(O)c3c[nH]nc3n2)c1C | – | – | – | – | – | IC50 [12]: 35.9 µM (inactive)
CCCCOc1ccc(CONS(=O)(=O)c2ccc(NC(C)=O)cc2)cc1Cl | 4.47 µM (active) | – | – | – | – | –
